Measured values: paper PMC11271275, “The structural insight into the functional modulation of human anion exchanger 3” (Nature Communications, 2024)
Blank lines part the entries; values can stand above or below the molecule they belong to.

How the values were obtained:
AE2 (human SLC4A2) [1] = target: T1, AE2 (human SLC4A2) (Homo sapiens, UniProt P04920); test: BCECF intracellular pH assay on Cl- reintroduction, SLC4A2-KO HEK293F cells; format: cell-based; parameters: overexpressed in SLC4A2-KO HEK293F cells; P04920-1 printed for the AE2 part of the chimera; details: 40 µM DIDS; 25 mM NaHCO3, pH 7.4
T1 sequence (P04920 1-1241): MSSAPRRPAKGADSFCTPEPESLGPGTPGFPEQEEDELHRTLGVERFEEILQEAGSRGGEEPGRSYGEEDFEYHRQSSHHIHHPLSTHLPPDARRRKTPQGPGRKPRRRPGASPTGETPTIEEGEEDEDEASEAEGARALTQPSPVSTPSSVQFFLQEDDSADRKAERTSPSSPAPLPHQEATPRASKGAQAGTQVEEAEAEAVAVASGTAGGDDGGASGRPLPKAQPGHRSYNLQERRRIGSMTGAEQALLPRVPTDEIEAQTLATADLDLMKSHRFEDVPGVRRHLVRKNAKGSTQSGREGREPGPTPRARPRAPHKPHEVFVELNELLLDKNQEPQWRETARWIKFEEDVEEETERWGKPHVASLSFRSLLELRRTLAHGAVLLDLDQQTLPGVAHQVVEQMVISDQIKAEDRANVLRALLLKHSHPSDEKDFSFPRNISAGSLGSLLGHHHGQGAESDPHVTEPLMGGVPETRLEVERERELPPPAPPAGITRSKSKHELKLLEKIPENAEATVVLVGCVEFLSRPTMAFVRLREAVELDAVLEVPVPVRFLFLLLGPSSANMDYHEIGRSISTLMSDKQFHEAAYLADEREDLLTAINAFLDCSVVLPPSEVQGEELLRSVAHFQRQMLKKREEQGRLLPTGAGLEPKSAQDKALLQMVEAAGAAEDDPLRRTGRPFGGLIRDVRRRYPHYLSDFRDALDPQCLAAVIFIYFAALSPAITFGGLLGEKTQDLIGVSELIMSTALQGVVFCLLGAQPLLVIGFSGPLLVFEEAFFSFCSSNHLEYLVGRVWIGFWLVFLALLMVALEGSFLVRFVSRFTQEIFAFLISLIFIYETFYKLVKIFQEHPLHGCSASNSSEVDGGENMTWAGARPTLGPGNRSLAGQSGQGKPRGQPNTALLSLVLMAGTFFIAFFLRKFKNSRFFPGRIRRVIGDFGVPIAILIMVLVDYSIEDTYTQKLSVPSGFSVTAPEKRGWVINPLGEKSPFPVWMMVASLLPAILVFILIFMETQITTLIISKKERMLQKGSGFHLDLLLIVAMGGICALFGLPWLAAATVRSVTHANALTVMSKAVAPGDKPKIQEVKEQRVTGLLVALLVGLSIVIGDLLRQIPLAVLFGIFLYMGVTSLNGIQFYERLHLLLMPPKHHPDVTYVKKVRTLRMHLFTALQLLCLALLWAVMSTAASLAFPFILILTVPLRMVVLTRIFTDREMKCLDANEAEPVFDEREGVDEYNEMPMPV

AE2 (human SLC4A2) [2] = target: T1, AE2 (human SLC4A2); details: Cl-/HCO3- exchange; 25 mM NaHCO3, pH 7.4
[3] = target: hAE3^NTD2^TMD chimera (NTD of hAE3 fused to TMD of hAE2) (human) (UniProt P04920); test: cryo-EM structure; hAE3^NTD2^TMD chimera in GDN; 300 kV Titan Krios, C2 symmetry; 3.35 Å; TMDs inward-facing
[4] = target: the molecule itself; test: SEC + other: 200 kV cryo-EM analysis; Superose 6 Increase 10/300 GL, 150 mM NaCl, 20 mM HEPES pH 7.4, 0.01% GDN, 4 °C; protein solubilised with LMNG

Molecule: O=S(=O)(O)c1cc(N=C=S)ccc1/C=C/c1ccc(N=C=S)cc1S(=O)(=O)O [DIDS, 4,4’-diisothiocyanatostilbene-2,2’-disulfonate]
inhibition at 40 μM (AE2 (human SLC4A2) [1]): activities of AE2 and AE3 could be inhibited by adding DIDS

Molecule: O=C(O)O [HCO3^−]
BCECF intracellular pH assay on Cl- reintroduction, SLC4A2-KO HEK293F cells (AE2 (human SLC4A2) [2]): a lower pH-modulating function than that observed for AE2

stoichiometry N [3]: 2
Molecule: hAE3^NTD2^TMD chimera (NTD of hAE3 fused to TMD of hAE2) (from UniProt P04920-1 672-1241)

B1: human anion exchanger 3, cardiac isoform (hAE3) (natural protein, UniProt P48751-1 300-1232, looked up)
chain: GLAPILRRKKKKKKLDRRPHEVFVELNELMLDRSQEPHWRETARWIKFEEDVEEETERWGKPHVASLSFRSLLELRRTIAHGAALLDLEQTTLPGIAHLVVETMIVSDQIRPEDRASVLRTLLLKHSHPNDDKDSGFFPRNPSSSSMNSVLGNHHPTPSHGPDGAVPTMADDLGEPAPLWPHDPDAKEKPLHMPGGDGHRGKSLKLLEKIPEDAEATVVLVGCVPFLEQPAAAFVRLNEAVLLESVLEVPVPVRFLFVMLGPSHTSTDYHELGRSIATLMSDKLFHEAAYQADDRQDLLSAISEFLDGSIVIPPSEVEGRDLLRSVAAFQRELLRKRREREQTKVEMTTRGGYTAPGKELSLELGGSEATPEDDPLLRTGSVFGGLVRDVRRRYPHYPSDLRDALHSQCVAAVLFIYFAALSPAITFGGLLGEKTEGLMGVSELIVSTAVLGVLFSLLGAQPLLVVGFSGPLLVFEEAFFKFCRAQDLEYLTGRVWVGLWLVVFVLALVAAEGSFLVRYISPFTQEIFAFLISLIFIYETFYKLYKVFTEHPLLPFYPPEGALEGSLDAGLEPNGSALPPTEGPPSPRNQPNTALLSLILMLGTFFIAFFLRKFRNSRFLGGKARRIIGDFGIPISILVMVLVDYSITDTYTQKLTVPTGLSVTSPDKRSWFIPPLGSARPFPPWMMVAAAVPALLVLILIFMETQITALIVSQKARRLLKGSGFHLDLLLIGSLGGLCGLFGLPWLTAATVRSVTHVNALTVMRTAIAPGDKPQIQEVREQRVTGVLIASLVGLSIVMGAVLRRIPLAVLFGIFLYMGVTSLSGIQLSQRLLLILMPAKHHPEQPYVTKVKTWRMHLFTCIQLGCIALLWVVKSTAASLAFPFLLLLTVPLRHCLLPRLFQDRELQALDSEDAEPNFDEDGQDEYNELHMPV
notes: Anion exchanger 3 (AE3, SLC4A3), human, cardiac isoform; amino acids 300-1232 by the numbering of UniProt P48751-1 (results); the methods name the cDNA as human Cardiac Anion Exchanger 3, UniProt P48751-2; the introduction says cAE3 lacks residues 1-296 of bAE3; A TEV protease site follows the N-terminal tags in the modified pCAGGS vector; no cleavage is described; The N-terminal domain was not …
stoichiometry N [4]: 2
